Reference: patent publication US9585840B1, “Redox active cerium oxide nanoparticles and associated methods” (University of Central Florida Research Foundation, Inc., priority 2009, dated 2017)

Key:
αSMA mRNA = assay: αSMA mRNA, quantitative real-time RT-PCR in human dermal fibroblasts; format: cell-based; conditions: HDF; 24 h after treatment; normalised to HPRT1
Experimental: Total RNA was isolated and transcribed into cDNA as described. Expression of mRNA was analyzed by real-time RT-PCR using a LightCycler system (Roche; Mannheim, Germany) as described. Real-time RT-PCR was performed with 40 ng cDNA in glass capillaries containing LightCycler FastStart DNA Master SYBR Green I Reaction Mix (Roche), 2 mM MgCl2 and 1 μM of primers. Quantitation of the PCR amplicons was performed using the LightCycler Software. Hypoxanthine phosphoribosyltransferase (HPRT1) was used as internal normalization control.

αSMA = assay: TGFβ1-mediated αSMA protein expression in human dermal fibroblasts, western blot; format: cell-based; conditions: HDF; for TGFβ1-triggered upregulation of αSMA protein levels: NAC 5.0 mM 4 h or Na2SeO3 0.5 μM 24 h pretreatment, rTGFβ1 5 ng/ml, 48 h after growth factor
Experimental: Human dermal fibroblasts (HDF) were established by outgrowth from foreskin biopsies of healthy human donors with an age of 3-6 years. Cells were used in passages 2-12, corresponding to cumulative population doubling levels of 3-27 [15]. Dermal fibroblasts and the squamous carcinoma cell line SCL-1, originally derived from the face of a person (generously provided by Prof. Dr Norbert Fusenig, DKFZ Heidelberg, Germany), were cultured as described. Myofibroblasts (MF) were generated by treatment of HDFs with different concentrations of recombinant TGFβ1 (5 ng/ml) for 48 h in HDF conditioned medium (CMHDF).
SDS-PAGE was performed according to the standard protocols published elsewhere with minor modifications. Briefly, cells were lysed after incubation with rTGFβ1 in 1% SDS with 1:1000 protease inhibitor cocktail (Sigma; Taufkirchen, Germany). After sonication, the protein concentration was determined by using a modified Lowry method (Bio-Rad DC). 2×SDS-PAGE sample buffer (1.5 M Tris-HCl pH 6.8, 6 ml 20% SDS, 30 ml glycerol, 15 ml β-mercaptoethanol and 1.8 mg bromophenol blue was added, and after heating, the samples (10 μg total protein/lane) were applied to 10% (w/v) SDS-polyacrylamide gels. After electroblotting, immunodetection was carried out (1:1000 dilution of primary antibodies (mouse monoclonal anti-SMA and tubulin), 1:20000 dilution of anti-mouse antibody conjugated to HRP). Antigen-antibody complexes were visualized by an enhanced chemiluminescence system. Alpha-tubulin was used as internal control for equal loading.

SCL-1 cells [1] = assay: Oxidized (carbonylated) proteins, Oxyblot, tumor cells; format: cell-based, human; conditions: 250 μM H2O2 for 1 h
Experimental: Dermal fibroblasts or tumor cells were grown to subconfluence on tissue culture dishes. After removal of serum-containing medium, HDF were cultured in CM^HDF and either mock-treated or pretreated for 40 h with 150 μM CeO2 nanoparticles prior to addition of 10 ng rTGFβ1/ml for additional 8 h. Tumor cells were mock-treated or treated with 150 μM CNP for 16 h. As positive control, the cells were treated with 250 μM H2O2 for 1 h. Thereafter, cells were lysed and carbonyl groups of oxidized proteins were detected with the OxyBlot™ Protein Oxidation Detection Kit, following the manufacturer's protocol. Briefly, the protein concentration was determined by using a modified Lowry method (Bio-Rad DC). The protein amounts of the samples were aligned. 5 μg of this cell lysate was incubated with 2,4-dinitrophenyl (DNP) hydrazine to form the DNP hydrazone derivatives. Labeled proteins were separated by SDS-PAGE and immunostained using rabbit anti-DNP antiserum (1:500) and goat anti-rabbit IgG conjugated to horseradish peroxidase (1:2000). Blots were developed by enhanced chemiluminescence.

SCL-1 cells [2] = assay: Intracellular ROS, DCF fluorescence, tumor cells; format: cell-based, human; conditions: 250 μM H2O2, technical control; data not shown
Experimental: Generation of ROS was determined using 2′,7′-Dichlorodihydrofluorescein diacetate (H2DCF-DA), a dye that diffuses across the lipid membranes into cells and is subsequently oxidized by intracellular ROS forming the highly fluorescent DCF. Subconfluent HDF and SCL-1 tumor cells were exposed to 50 μM or 150 μM CNP in serum-free DMEM in 24-well plates. Untreated subconfluent SCL-1 cells were used as negative controls. Medium was substituted after 24 h by 100 μM H2DCF-DA containing Hanks Balanced Salt Solution (HESS). DCF fluorescence was detected at an excitation wavelength of 485 nm and emission wavelength of 520 nm in 15 minutes intervals in a FLUOstar OPTIMA plate reader (BMG Labtech, Offenburg, Germany). Mean fluorescence intensities and standard error of mean were determined for each reading point by using the statistical software Prism 3.0 (GraphPad, San Diego, Calif., USA).

HIF-1 [3] = assay: HIF-1 protein expression, western blot, fibroblasts; format: cell-based, human; conditions: HDF; 100 μM cobalt chloride; 4 h
HIF-1 [4] = assay: HIF-1 protein expression, western blot, tumor cells; format: cell-based, human; conditions: SCL-1; 100 μM cobalt chloride; 4 h
[5] = mouse, in vivo, iv, 0.5 mg/kg
Experimental: Eight-week-old, CD-1 mice were divided into two groups. Controls were given weekly doses of 100 μl sterile PBS only by intravenous (IV) administration. The nanoceria group received five doses (one dose a week) of 0.5 mg/kg of nanoceria suspended in 100 μl of sterile saline (IV). Both groups were sacrified on the sixth week. Skin tissue from the back of each animal was excised and hair removed. The tissue was patted dry, weighed and placed in 70% nitric acid overnight to start the digestion process. Samples were then microwave digested. The temperature was ramped to 200° C. over 20 min and held there for another 20 min. Samples were then boiled down to less than 1 ml each and reconstituted in water to an exact volume of 10 ml. Cerium levels were assessed using inductively coupled plasma mass spectroscopy (ICP-MS).

TGFβ1: Recombinant human TGFβ1 from R&D Systems, stimulus for myofibroblast formation
increase in αSMA steady-state mRNA levels compared to mock-treated controls (αSMA mRNA): 10 fold
αSMA protein amount compared with mock-treated control cells (αSMA; rTGFβ1 5 ng/ml for 8 to 48 h, starting at 16 h post treatment): significant time-dependent increase

OO [H2O2, Hydrogen peroxide]
oxidized proteins, positive control (SCL-1 cells [1]): increase in oxidized proteins
intracellular ROS level (SCL-1 cells [2]): further increased

[Cl][Co][Cl] [cobalt chloride]
HIF-1 protein expression (HIF-1 [3]): not affected
HIF-1 protein levels compared to mock-treated cells (HIF-1 [4]): significant increase

O=[Se]([O-])[O-].[Na+].[Na+] [selenite, sodium selenite]
TGFβ1-triggered upregulation of αSMA protein levels (αSMA): significantly lowered

CC(=O)N[C@@H](CS)C(=O)O [NAC, N-acetyl-L-cysteine]
TGFβ1-triggered upregulation of αSMA protein levels (αSMA): completely prevented

cerium oxide nanoparticles [CNP]
increase in the amount of CeO2 per gram skin tissue vs mock-treated mice [5]: up to 8 fold
cell morphology (human dermal fibroblasts): No change in morphology
